Assay results published in US11478466B2, “Small molecule promoting osteoblast differentiation” (Cornell University, priority 2019, dated 2022).
Where two headings read alike, the source gives them in different places.

Experiments:
[1] = system: RAW 264.7 murine macrophage cell line; assay: Osteoclast differentiation (TRAP staining, qRT-PCR) in RAW 264.7 cells; type: cell-based, mouse
Method: To address the specificity of DIPQUO for stimulating an osteogenic versus osteoclastic program, the RAW 264.7 murine macrophage cell line was assayed for osteoclast differentiation by staining for tartrate-resistant acid phosphatase (TRAP) to distinguish multinucleated osteoclasts from macrophages. […] Thus, DIPQUO appears to be primarily supportive of osteogenesis.
The RAW 264.7 macrophage cell line was purchased from ATCC and maintained in DMEM with 10% FBS. Cells were treated with 10 μM DIPQUO or 50 ng/ml RANKL (Sigma) for 4 days. Cells were fixed in 70% acetone/10% formaldehyde/20% citrate and TRAP staining was achieved using the Leukocyte Acid Phosphatase kit (Sigma 387A-1KT).
For quantitative RT-PCR analysis of gene expression in C2C12 cultures, cells were treated for 2 days with 10 μM DIPQUO and harvested into Trizol reagent (Invitrogen). One microgram of RNA was reverse transcribed using the VILO-RT kit (Invitrogen) to generate cDNA, which was diluted 1:25 in RNase-free H2O for qPCR with Sybr green using the Roche 480 II LightCycler and the 2^−ΔΔCT method (Livak and Schmittgen, 2001). For analysis of osteoclast gene expression, RAW 264.7 cells were treated with DMSO, 50 ng/ml RANKL, or 10 μM DIPQUO for 4 days, then harvested into Trizol reagent and processed as above. Mouse qPCR primers are as follows. Runx2: F([…]) (SEQ ID NO:1); R([…]) (SEQ ID NO:2); Dlx5: F([…]) (SEQ ID NO:3); R([…]) (SEQ ID NO:4); Osterix: F([…]) (SEQ ID NO:5); R([…]) (SEQ ID NO:6); ALP: F([…]) (SEQ ID NO:7); R([…]) (SEQ ID NO:8); Osteocalcin: F([…]) (SEQ ID NO:9); R([…]) (SEQ ID NO:10); Osteoactivin: F([…]) (SEQ ID NO:11); R([…]) (SEQ ID NO:12); CTSK: F([…]) (SEQ ID NO:13); R([…]) (SEQ ID NO:14); MMP9: F([…]) (SEQ ID NO:15); R([…]) (SEQ ID NO:16); Gapdh F([…]) (SEQ ID NO:17); R([…]) (SEQ ID NO:18). RNA-seq studies were carried out with the assistance of the Weill Cornell Genomics Core Facility, using the Illumina HiSeq4000 next-generation sequencer to generate reads from cDNA libraries generated from three biological replicates of day 2 DMSO- or DIPQUO-treated C2C12 cells. […]

[2] = system: PI3K/Akt, ERK, TGF-β/SMAD2/3, BMP/SMAD1/5/9; assay: Western blotting of other signaling effectors in C2C12 cells; type: cell-based, mouse
Method: Whole cell extracts were collected from C2C12 or BRITER cells in complete lysis buffer (20 mM Tris, 150 mM NaCl, 50 mM NaF, 1% NP40 substitute, HALT protease inhibitor cocktail (ThermoScientific). Proteins were resolved by electrophoresis on pre-cast 10% NuPage Bis-Tris gels (Invitrogen) and transferred to PVDF membranes (Bio-Rad). Membranes were blocked in 5% BSA-TBS-0.5% Tween-20 for 15 minutes, then incubated at 4° overnight with primary antibodies. Antibodies used were: rabbit anti-phospho-p38 MAPK (cat. no. 9211), anti-p38 MAPK XP (8690), anti-phospho-SMAD1/5 (9516), anti-SMAD1 XP (6944), anti-phospho-SMAD2/3 (8828), anti-SMAD2/3 XP (8685), anti-phospho-JNK (4668), anti-SAPK/JNK (9252), anti-phospho-Akt XP (4060), pan anti-Akt (4691), anti-phospho ERK p42/p44 (4377), anti-ERK p42/p44 (9102), anti-phospho-MKK3/6 (12280), anti-MKK3 (8535), anti-phospho-TAK1 (4531), anti-TAK1 (5206), anti-HA (3274), and anti-FLAG (14793); all from Cell Signaling); and mouse anti-p38α (cat. no. 33-1300), anti-p38β (33-8700; both ThermoFisher) and anti-β-actin (Sigma A1978). Proteins were visualized with HRP-conjugated secondary antibodies (Bio-Rad) with WestPico (ThermoFisher) or Immobilon (Millipore) chemiluminescence reagents. Images were obtained and analyzed for relative densitometric relationships on a LI-COR C-DiGit scanner using Image Studio software.

p38-α = assay: Isoform-specific immunoprecipitation, p38-α activity in C2C12 cells; type: cell-based, mouse; conditions: C2C12, 10 μM DIPQUO
Text: There are four separate p38 isoforms: α, β, γ, and δ. The respective roles of the α and β isoforms in bone differentiation have been dissected to the extent that p38-β is known to be involved specifically in skeletogenesis (Greenblatt et al., 2010), while p38-α has roles that are both wide-ranging and highly specific, for instance in dentition (Greenblatt et al., 2015). Accordingly, we used small interfering RNA-mediated knockdown to probe the specificity of DIPQUO to block the activity of one or the other isoform (FIG. 6E). […] To confirm the biological significance of this observation, the α and β isoforms were immunoprecipitated from C2C12 cells and analyzed for relative activity levels.

[3] = system: alkaline phosphatase (ALP); assay: cells; conditions: Mus musculus; for activation at 10 µM: C2C12, 96 h

Cc1cc(C)c2[nH]c(=O)c(-c3[nH]cnc3-c3ccccc3)cc2c1 [RU-0226606, 6,8-dimethyl-3-(4-phenyl-1H-imidazol-5-yl)quinolin-2(1H)-one]
expression of CTSK and MMP9 (qRT-PCR) ([1]; RAW 264.7, 10 μM, 4 days): upregulated, albeit to a lower level compared with RANKL induction | TRAP staining of multinucleated osteoclasts ([1]; RAW 264.7, 4 days, DIPQUO 10 μM, RANKL 50 ng/ml): comparatively few TRAP-positive cells | other pathways (PI3K/Akt, ERK, TGF-β/SMAD2/3, BMP/SMAD1/5/9) [2]: no change observed | p38-α isoform activity after immunoprecipitation (p38-α): suppressed | EC50 ([3]; C2C12): 9.3 µM | activation at 10 µM [3]: 100% | activation at 10 µM ([3]; read-out: NPA Score Threshold ≥ 5.0 (normalized percent activation)): 8.78% | EC50 ([3]; C2C12, read-out: Measured EC50): 8.6 µM | EC50 ([3]; C2C12, read-out: half maximal effective concentration in C2C12 cells): 6.27 µM
